Measurements taken from patent US20240131007A1, “METHODS AND COMPOSITIONS FOR PICORNAVIRUS ANTI-VIRAL AGENTS” (University of Connecticut, priority 2022, published 2024).
“Also recorded” adds a separate entry of the source. Structures can show the parent of a compound that is named as a salt. Where two headings read alike, the source gives them in different places.

Assays:
[1] = test system: EV-A71; assay: CPE inhibition assay (Cell Titer Glo) against EV-A71 in Vero cells; assay type: cell-based, Enterovirus A71; settings: for IC50 / anti-viral activity (luminescence above 3SD cutoff) / anti-viral activity of analogs of Compound T3 (luminescence above 3SD cutoff): EV-A71, Vero cells; for anti-viral activity (luminescence above 3SD cutoff): single concentration 50 μM; for Selectivity Index: CC50/IC50; for anti-viral activity of analogs of Compound T3 (luminescence above 3SD cutoff): single concentration 25 μM
[2] = test system: Vero cells; assay: Cytotoxicity assay (Cell Titer Glo); settings: for CC50: Vero cells
[3] = target: T1, EV-A71 Δ2C^116-329 (Human enterovirus 71, UniProt Q66478); assay: biochemical; assay type: biochemical; settings: for inhibition of the ATPase function of Δ2C^116-329 (absorbance below 3SD cutoff): single concentration 50 μM
T1 construct: EV-A71 Δ2C (amino acids 116-329) was designed with; made in house; host or cells: E. coli Rosetta 2(DE3) pLysS, pMALc5x vector
T1 sequence (Q66478 1227-1440, stated change not applied): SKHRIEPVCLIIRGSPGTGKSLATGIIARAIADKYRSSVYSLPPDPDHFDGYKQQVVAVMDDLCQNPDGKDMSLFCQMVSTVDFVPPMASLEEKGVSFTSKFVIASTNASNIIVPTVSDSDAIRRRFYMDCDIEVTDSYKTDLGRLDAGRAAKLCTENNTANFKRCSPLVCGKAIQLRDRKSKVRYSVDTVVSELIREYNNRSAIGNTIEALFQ

[4] = target: T2, EV-A71 Δ2C^116-329 (2C ATPase) (Enterovirus A71, UniProt B9VUU3); assay: 2C ATPase inhibition assay (colorimetric malachite green, dose response); assay type: biochemical
T2 construct: Ni-NTA and SEC purified
T2 sequence (B9VUU3 1227-1440, stated change not applied): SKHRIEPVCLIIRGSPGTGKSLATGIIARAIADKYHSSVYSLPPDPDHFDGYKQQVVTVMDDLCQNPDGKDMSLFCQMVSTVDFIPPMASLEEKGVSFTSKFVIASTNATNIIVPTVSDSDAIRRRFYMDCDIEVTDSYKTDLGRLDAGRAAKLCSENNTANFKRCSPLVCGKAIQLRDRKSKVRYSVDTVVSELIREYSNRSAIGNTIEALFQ

[5] = Cytotoxicity assay (Cell Titer Glo); settings: African green monkey, CC50 (μM), Vero cells
[6] = Enterovirus A, EVA71, Table 10, Scaffold 1, read-out: IC50
[7] = Enterovirus A, EVA71, Table 12, Scaffold 3, read-out: IC50

Molecule: Cc1[nH]c2ccc(Br)cc2c1CCN [Compound T5, [2-(5-bromo-2-methyl-1H-indol-3-yl)ethyl]aminehydrochloride]
- IC50 ([1]; Table 6, read-out: IC50): 103 µM
- CC50 ([2]; Table 6): 61.6 µM

Molecule: OC(COC(c1ccc(F)cc1)c1ccc(F)cc1)Cn1cnc2cc(F)c(F)cc21 (centres unmarked) [Compound 108, 1-[bis(4-fluorophenyl)methoxy]-3-(5,6-difluoro-1H-1,3-benzodiazol-1-yl)propan-2-ol]
- inhibition of the ATPase function of Δ2C^116-329 (absorbance below 3SD cutoff) [3]: inhibited 2C ATPase; also recorded: inhibited the ATPase function
- anti-viral activity (luminescence above 3SD cutoff) [1]: did not show activity above the threshold value
- IC50 [4]: 57.3 µM

Molecule: Cc1ccc2[nH]c(-c3ccc(NC(=O)Cc4cccs4)cc3)nc2c1 [Compound 35, N-[4-(5-methyl-1H-benzimidazol-2-yl)phenyl]-2-(2-thienyl)acetamide]
- IC50 [1, 6]: > 25 µM
- CC50 at 3 days ([5]; Table 10, Scaffold 1): > 400 µM

Molecule: O=C(Cc1cccs1)Nc1ccc(-c2nc3ccccc3[nH]2)cc1 [Compound 9, N-[4-(1H-benzimidazol-2-yl)phenyl]-2-(2-thienyl)acetamide]
- IC50 [1, 6]: 104 µM
- Selectivity Index ([1]; Table 10, Scaffold 1): 3.26
- CC50 at 3 days ([5]; Table 10, Scaffold 1): 338 µM

Molecule: Cc1ccc2[nH]c(-c3ccc(NC(=O)c4ccco4)cc3)nc2c1 [Compound T3, N-[4-(5-methyl-1H-benzimidazol-2-yl)phenyl]-2-furamide]
- IC50 ([1]; Enterovirus A, EVA71, read-out: IC50 for inhibition of virus-induced CPE): 2.9 µM
- IC50 ([1]; Enterovirus A, EVA71, Table 6, read-out: IC50): 2.9 µM
- Selectivity Index ([1]; Table 6): >68.97
- selectivity index ([1]; from IC50 and CC50): > 68.9
- CC50 at 3 days ([5]; Table 6): > 200 µM
- toxicity to Vero cells ([2]; up to 200 μM): no toxicity

Molecule: O=C(CSc1ccc(Cl)cc1)Nc1ccc(-c2nc3ccccc3[nH]2)cc1 [Compound 25, N-[4-(1H-benzimidazol-2-yl)phenyl]-2-[(4-chlorophenyl)thio]acetamide]
- IC50 [1, 6]: > 25 µM
- CC50 at 3 days ([5]; Table 10, Scaffold 1): 582 µM

Molecule: O=C(C=Cc1ccco1)Nc1ccc(-c2nc3ccccc3[nH]2)cc1 [Compound 20, N-[4-(1H-benzimidazol-2-yl)phenyl]-3-(2-furyl)acrylamide]
- IC50 [3]: 18.1 µM
- IC50 [1, 6]: 5.41 µM
- Selectivity Index ([1]; Table 10, Scaffold 1): >73.94
- CC50 at 3 days ([5]; Table 10, Scaffold 1): > 400 µM

Molecule: O=C(Nc1ccc2[nH]c(-c3ccco3)nc2c1)c1cccs1 [Compound 57, N-[2-(2-furyl)-1H-benzimidazol-5-yl]-2-thiophenecarboxamide]
- IC50 ([1]; Enterovirus A, EVA71, Table 8, virus-induced CPE, read-out: IC50): 2.75 µM
- Selectivity Index ([1]; Table 8): 3.09
- Selectivity Index ([1]; Table 12, Scaffold 3): 3.09
- anti-viral activity of analogs of Compound T3 (luminescence above 3SD cutoff) [1]: have activity
- CC50 at 3 days ([5]; Table 8): 8.5 µM
- CC50 at 3 days ([5]; Table 12, Scaffold 3): 8.5 µM

Molecule: O=c1nc(C=Cc2cn(Cc3ccccc3Cl)c3ccccc23)cc(C(F)(F)F)[nH]1 [Compound 139, 4-(2-{1-[(2-chlorophenyl)methyl]-1H-indol-3-yl}ethenyl)-6-(trifluoromethyl)-1,2-dihydropyrimidin-2-one]
- inhibition of the ATPase function of Δ2C^116-329 (absorbance below 3SD cutoff) [3]: inhibited 2C ATPase; also recorded: inhibited the ATPase function
- anti-viral activity (luminescence above 3SD cutoff) [1]: did not show activity above the threshold value
- IC50 [4]: 71.3 µM

Molecule: N-[4-(1H-benzimidazol-2-yl)phenyl]-2-(3-4-phenylthio)acetamide [Compound 22]
- CC50 ([2]; Table 10, Scaffold 1): 761 µM

Molecule: O=C(Nc1ccc2[nH]c(-c3cccs3)nc2c1)c1cccs1 [Compound 56, N-[2-(2-thienyl)-1H-benzimidazol-5-yl]-2-thiophenecarboxamide]
- IC50 [1, 7]: 20 µM
- Selectivity Index ([1]; Table 12, Scaffold 3): 6.17
- anti-viral activity of analogs of Compound T3 (luminescence above 3SD cutoff) [1]: have activity
- CC50 at 3 days ([5]; Table 12, Scaffold 3): 123 µM

Molecule: CC(=O)Nc1ccc2[nH]c(-c3ccc(Br)o3)nc2c1 [Compound 52, N-[2-(5-bromo-2-furyl)-1H-benzimidazol-5-yl]acetamide]
- IC50 [1, 7]: 7.1 µM
- Selectivity Index ([1]; Table 12, Scaffold 3): 1.30
- CC50 at 3 days ([5]; Table 12, Scaffold 3): 9.2 µM

Molecule: N-[4-(5-methyl-1H-benzimidazol-2-yl)phenyl]-2-(3-7-phenylthio)acetamide [Compound 42]
- IC50 ([1]; Table 10, Scaffold 1, read-out: IC50): 6.99 µM
- CC50 ([2]; Table 10, Scaffold 1): 684 µM
